Reference: paper PMC10931745 (International Journal of Molecular Sciences, 2024)

Legend:
[1] = tested on: TNF-α expression in MDA-MB-231 cells; test: Immunofluorescence, TNF-α expression; format: cell-based, human; settings: 15 µM, 24 h
Protocol: (§1) After a PBS wash, cells were fixed using cold methanol (15 min at −20 °C) and incubated overnight at 4 °C with the primary antibodies raised against NF-κB, iNOS, TNF-α, and COX-1 and 2 (Santa Cruz Biotechnology Inc., Santa Cruz, CA, USA) diluted in BSA 2%, as previously described. […] DAPI (Sigma Aldrich, Milan, Italy) 0.2 µg/mL was added for 10 min for nuclei counterstaining. A fluorescence microscope (Leica DM 6000) was used for visualizing images, and LAS-X software 3.5.7.23225 was used for acquisition and processing.

[2] = tested on: NF-κB localization in MDA-MB-231 cells; test: Immunofluorescence, NF-κB localization; format: cell-based, human; settings: 15 µM
Protocol: as §1

[3] = biological target: T1, human topoisomerase I (hTopoI) (Homo sapiens, UniProt P11387); test: Human topoisomerase I relaxation assay; format: biochemical; settings: 1 µM, supercoiled pHOT1 DNA
T1 construct: purchased TopoGEN, Port Orange, FL, USA
T1 sequence (P11387 1-765): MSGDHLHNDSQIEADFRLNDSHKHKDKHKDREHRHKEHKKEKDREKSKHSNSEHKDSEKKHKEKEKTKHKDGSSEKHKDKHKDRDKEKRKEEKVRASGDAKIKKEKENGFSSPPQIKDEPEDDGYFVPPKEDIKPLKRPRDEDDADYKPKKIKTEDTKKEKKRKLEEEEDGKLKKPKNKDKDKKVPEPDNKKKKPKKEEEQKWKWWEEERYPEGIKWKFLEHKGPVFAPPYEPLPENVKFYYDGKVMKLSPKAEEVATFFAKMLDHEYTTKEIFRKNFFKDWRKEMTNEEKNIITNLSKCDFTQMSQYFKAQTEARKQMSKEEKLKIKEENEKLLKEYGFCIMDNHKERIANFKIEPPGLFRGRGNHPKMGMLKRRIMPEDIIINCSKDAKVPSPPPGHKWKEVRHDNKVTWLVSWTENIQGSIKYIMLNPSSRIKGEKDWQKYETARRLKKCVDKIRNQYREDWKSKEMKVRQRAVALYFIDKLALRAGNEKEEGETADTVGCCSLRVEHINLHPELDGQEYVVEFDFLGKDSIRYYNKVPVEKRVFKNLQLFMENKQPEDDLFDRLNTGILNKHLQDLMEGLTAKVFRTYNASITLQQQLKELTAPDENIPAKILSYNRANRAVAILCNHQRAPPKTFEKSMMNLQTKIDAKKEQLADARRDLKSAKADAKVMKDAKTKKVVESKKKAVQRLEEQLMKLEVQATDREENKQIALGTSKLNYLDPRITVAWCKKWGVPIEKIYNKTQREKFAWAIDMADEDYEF
Protocol: The human topoisomerase I relaxation assay was performed as reported in [86]. Shortly, the recombinant human topo I (TopoGEN, Port Orange, FL, USA) was incubated with the super-coiled pHOT1, in the presence or not of the tested compounds, at the indicated concentrations. The reaction products were then allowed to separate through the agarose gel electrophoresis, and ethidium bromide-stained DNA was visualized under UV light.

[4] = tested on: NO production in LPS-stimulated RAW 264.7 macrophages; test: Griess assay, NO production; format: cell-based, murine; settings: 25 µM, LPS 1 µg/mL, 24 h
Protocol: The Griess assay was performed using RAW 264.7 murine macrophages to study the anti-inflammatory activity in terms of NO production. RAW 264.7 cells were plated in the 48 multi-wells and, after 24 h, treated with the tested molecules (25 µM) and the lipopolysaccharide (LPS, Sigma Aldrich, Milan, Italy) at a final concentration of 1 µg/mL. LPS is able to induce inflammation by stimulating NO production in immune system cells such as macrophages. After 24 h, the cell medium Griess reagent (Sigma Aldrich, Milan, Italy) was mixed in with a ratio of 1:1. The Griess reagent allowed for the quantification of NO released by macrophages in the treatment medium. The mixture was left for 30 min under agitation and, subsequently, the absorbance at 540 nm was measured using a multiplate reader. The obtained absorbance allowed us to calculate the NO production % compared to the absorbance obtained for the positive control, in which the cells were treated with LPS.

[5] = tested on: Salmonella typhimurium (ATCC 14028); test: MIC/MBC broth dilution; format: cell-based
Protocol: (§2) The bacterial strains used for MIC and MBC value determinations expressed as µg/mL by the broth dilution method, according to CLSI guidelines, were the following:
(§3) Increasing concentrations of the complexes (50, 70, 100, 150, and 200 µg/mL) were incubated with bacteria plated in 96-well microplates at 37 °C overnight as already reported, and then bacterial growth was checked at a wavelength of 600 nm using a Multiskan spectrophotometer (model Multiskan Ex Microplate; Thermo Scientific, Nyon, Switzerland). MIC or MBC values were obtained by comparing cell density with a positive control (bacterial cells grown in LB medium were added with only the vehicle, DMSO). […] Ampicillin, Gentamicin, and Cephalosporin (Sigma Aldrich A9393) were used as the control for strain sensitivity.

[6] = tested on: Pseudomonas aeruginosa (ATCC 15442); test: MIC/MBC broth dilution; format: cell-based
Protocol: as §2, §3

[7] = DPPH radical scavenging assay; format: biochemical
Protocol: The radical scavenging properties of the complexes on the 1,1-diphenyl-2-picrylhydrazil (DPPH) radical were evaluated as previously described.
All the complexes were used at different concentrations (10, 25, 50, 100, and 200 µg/mL) and the DPPH radical scavenging activity, measured at 517 nm using a microplate reader, was expressed as inhibition percentages (%IDPPH) compared to the initial concentration of DPPH (control) according to the following expression:(2) IDPPH (%)=ABSCTRL−ABSsample/ABSCTRL∗100 where ABSCTRL and ABSsample are the absorbance at 517 nm in the control and in the presence of samples, respectively.
The obtained IDPPH percentages allowed us to calculate the IC50 values using Graph-Pad Prism 9 software (GraphPad Inc., San Diego, CA, USA). Trolox was employed as a positive control, while caffeine and theophylline were reference compounds.

MDA-MB-231 cells = test: TUNEL assay (DNA damage/apoptosis); format: cell-based, human; settings: 30 µM, 24 h
Protocol: The terminal deoxynucleotidyl transferase dUTP nick end labeling (TUNEL) assay was performed to detect cell apoptosis, following the manufacturer’s protocols (CF™488A TUNEL Assay Apoptosis Detection Kit, Biotium, Hayward, CA, USA), with some modifications, as previously indicated. Nuclei staining was performed using DAPI solution (0.2 µg/mL, Sigma Aldrich, Milan, Italy). A fluorescence microscope (Leica DM 6000) was used for the cell examinations at 20× magnification. LAS-X software 3.5.7.23225 was employed for the acquisition and processing of the images, which were representative of three independent experiments.

## Cn1c(=O)c2c(n(C)[c]([Au-][I])[n+]2CC(O)c2ccccc2)n(C)c1=O (racemic) [AuL1, 1,3,7-Trimethylxanthin-9-[(2-hydroxy-2-phenyl)ethyl-8-ylidene]Au(I) Iodide]
[1]
  Reduction in TNF-α expression (fluorescence quantification): about 60%
[2]
  NF-κB intracellular localization: prevalently located in the cytoplasm
[3]
  Inhibition of hTopo I supercoil relaxing activity: totally inhibited
[4]
  Reduction in NO production: ~6.23%
[5]
  M.B.C. S. typhimurium: > 200 µg/mL
  M.I.C. S. typhimurium: 150 µg/mL
[6]
  M.B.C. P. aeruginosa: > 125 µg/mL
  M.I.C. P. aeruginosa: 100 µg/mL
[7]
  IC50: > 500 µM
MDA-MB-231 cells
  DNA damage (green nuclear fluorescence, TUNEL): formation of a green nuclear fluorescence

## CC(=O)[O][Ag-][c]1n(C)c2c(c(=O)n(C)c(=O)n2C)[n+]1C1CCCCC1O (centres unmarked) [AgL2OAc, 1,3,7-Trimethylxanthin-9-[cyclohexan-2-ol-8-ylidene]Ag(I) Acetate]
[1]
  Reduction in TNF-α expression (fluorescence quantification): ~50%
[2]
  NF-κB intracellular localization: prevalently located in the cytoplasm
[3]
  Inhibition of hTopo I supercoil relaxing activity: totally inhibited
[4]
  Reduction in NO production: about 5.20%
[5]
  M.B.C. S. typhimurium: > 200 µg/mL
  M.I.C. S. typhimurium: 150 µg/mL
[6]
  M.B.C. P. aeruginosa: > 125 µg/mL
  M.I.C. P. aeruginosa: 100 µg/mL
[7]
  IC50: > 500 µM
MDA-MB-231 cells
  DNA damage (green nuclear fluorescence, TUNEL): formation of a green nuclear fluorescence
